Experimental data taken from paper PMC10112521, “High-throughput AR dimerization assay identifies androgen disrupting chemicals and metabolites” (Frontiers in Toxicology, 2023).
“And” between values parts separate entries of the source, which are not always exact repeats. Identical values can stand only once. Like-named read-outs stand apart in the source and are kept apart here.

Key:
[1] = molecular target: T1, human AR (Homo sapiens, UniProt P10275); assay: AR2 assay, agonist mode: ligand-dependent AR homodimerization (NanoBiT luciferase complementation) in stable HepG2-AR2 cells; assay type: cell-based; details: for hill_gw: Hill model gain slope (Hill coefficient); for hill_gw / hill_tp: 0 given where win_model is Constant; for hill_tp: Hill model top (efficacy); for win_model: winning concentration-response model (Constant, Hill, Gain-Loss); for AR2 agonist: activity call, agonist mode;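 as to hill tp: Log2 fold change of luminescence over DMSO vehicle wells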;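 as to max med: Log2 fold change of luminescence over DMSO vehicle wells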
T1 sequence (P10275 1-920) 1: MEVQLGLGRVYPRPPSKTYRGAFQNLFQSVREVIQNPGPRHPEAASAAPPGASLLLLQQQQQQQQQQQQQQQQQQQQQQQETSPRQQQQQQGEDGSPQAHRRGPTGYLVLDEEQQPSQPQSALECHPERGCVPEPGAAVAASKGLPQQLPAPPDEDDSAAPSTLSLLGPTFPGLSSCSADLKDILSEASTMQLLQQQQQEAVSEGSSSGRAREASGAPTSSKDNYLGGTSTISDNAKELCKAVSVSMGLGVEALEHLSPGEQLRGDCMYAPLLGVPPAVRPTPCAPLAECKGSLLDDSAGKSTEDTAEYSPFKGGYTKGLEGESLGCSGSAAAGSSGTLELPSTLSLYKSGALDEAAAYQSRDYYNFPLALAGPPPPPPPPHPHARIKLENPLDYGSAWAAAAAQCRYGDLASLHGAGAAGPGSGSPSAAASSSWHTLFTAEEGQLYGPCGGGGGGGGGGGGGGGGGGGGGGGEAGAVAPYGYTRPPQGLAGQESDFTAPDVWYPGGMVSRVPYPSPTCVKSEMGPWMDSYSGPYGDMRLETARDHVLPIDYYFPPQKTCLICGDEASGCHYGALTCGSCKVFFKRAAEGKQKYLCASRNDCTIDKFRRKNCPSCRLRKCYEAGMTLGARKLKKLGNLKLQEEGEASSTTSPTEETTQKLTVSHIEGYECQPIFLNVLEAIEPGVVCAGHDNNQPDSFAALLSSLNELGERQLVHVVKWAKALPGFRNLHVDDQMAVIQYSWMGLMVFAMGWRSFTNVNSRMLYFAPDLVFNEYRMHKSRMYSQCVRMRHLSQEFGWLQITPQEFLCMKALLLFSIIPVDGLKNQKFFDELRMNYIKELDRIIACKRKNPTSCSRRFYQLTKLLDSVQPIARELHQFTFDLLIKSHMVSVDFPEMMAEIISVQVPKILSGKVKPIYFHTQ
T1 sequence (P10275 1-920) 2: T1 sequence (P10275 1-920) 1

[2] = molecular target: T1, human AR; assay: AR2 assay, antagonist mode: disruption of R1881 (10 nM)-induced AR homodimerization in HepG2-AR2 cells; assay type: cell-based
[3] = molecular target: T1, human AR; assay: cell-based; design: species or system AR2 cells (HepG2-AR2); NanoLuc complementation AR homodimerization, antagonist mode, loss of agonist-induced luminescence, AC50 by Hill fit
[4] = molecular target: T1, human AR; assay: cell-based; design: species or system AR2 cells (HepG2-AR2); NanoLuc complementation AR homodimerization, agonist mode, luminescence gain, AC50 by Hill fit
[5] = test system: AR2 cells (HepG2-AR2); assay: Alamar Blue (resazurin) post hoc cell viability / cytotoxicity assay in AR2 cells
Method: (§1) For antagonist mode and cytotoxicity data, well-level normalized response (resp) was calculated as: resp=100 * RLU−bval/pval−bval where pval is the median RLU value of the MEC positive control wells (minimum four wells).

[6] = test system: AR2 cells (HepG2-AR2)
Method: as §1

[7] = test system: full-length human AR and the receptor interacting domain (RID) of SRC1; design: method as in U.S. EPA, 2002b; details: cited from earlier work
[8] = test system: human AR (LBD and AF2 domains) and the RID of human SRC2; design: method as in U.S. EPA, 2002b; details: activity call, agonist mode, 2 h; invitroDBv3.4 ref U.S. EPA, 2002b; cited from earlier work
[9] = test system: AR; design: method as in Kleinstreuer et al., 2017; details: cited from earlier work
[10] = sheet agonist_fits, maximum median response
[11] = spid AR_antagonist, sheet antagonist_fits
[12] = spid AR_antagonist, sheet antagonist_fits, 0 where win_model is Constant
[13] = hill_ga, spid=Bgal, antagonist mode, 10 nM agonist stimulus, 18 h, no CYP expressed
[14] = hill_ga, spid=No_RNA, antagonist mode, 10 nM agonist stimulus, 18 h, no CYP expressed
[15] = hill_ga, spid=Bgal, agonist mode, 18 h, no CYP expressed
[16] = hill_ga, spid=No_RNA, agonist mode, 18 h, no CYP expressed
[17] = spid Viability, sheet antagonist_fits
[18] = spid Viability, sheet antagonist_fits, 0 where win_model is Constant
[19] = AR agonist reference class ref Kleinstreuer et al., 2017
[20] = spid=Bgal, antagonist mode, 10 nM agonist stimulus, 18 h, no CYP expressed, read-out: hill_ga (converted)
[21] = activity call, 8 h, single protocol detects agonists and antagonists, invitroDBv3.4 ref U.S. EPA, 2002b
[22] = activity call, 16 h, single protocol detects agonists and antagonists, invitroDBv3.4 ref U.S. EPA, 2002b

SMILES	hill_gw ([1]; sheet agonist_fits)	hill_tp ([1]; sheet agonist_fits)	max_med [1, 10]	win_model ([1]; sheet agonist_fits)	max_med (maximum median response) [2, 11]	win_model (winning concentration-response model) [2, 11]	hill_gw (Hill model slope) [2, 12]	hill_tp (Hill model top) [2, 12]	AC50 [3, 13] [µM]	AC50 [3, 14] [µM]	AC50 [4, 15] [µM]	max_med (maximum median response) [5, 17]	hill_tp (Hill model top) [5, 18]	UPitt agonist [8]	other results
O=C(c1ccc(O)cc1O)c1ccc(O)cc1O [2,2',4,4'-Tetrahydroxybenzophenone]	3.418	2.275	2.26	Gain-Loss	92.9832	Hill	1.5932	93.4271	9.95	10.6	9.83	18.7262	17.7235		AC50 [4, 16]: 9.94 µM
C[C@]12CCC(=O)C[C@@H]1CC[C@@H]1[C@@H]2CC[C@]2(C)[C@@H](O)CC[C@@H]12 [5alpha-Dihydrotestosterone]														0	hill_ga (Hill model log AC50) [6]: 1.263; OT 8 hr [7]: 1; OT 16 hr [7]: 1; Agonist reference [9]: Moderate; hill_tp (Hill model top) [5]: 25.0955; max_med (maximum median response) [5]: 25.6282
C[C@]12CC[C@@H]3c4ccc(O)cc4CC[C@H]3[C@@H]1CC[C@H]2O [17alpha-Estradiol]												9.057	0	1	OT 8 hr [7]: 1; OT 16 hr [7]: 1; Agonist reference [9, 19]: Inactive
CCCCOC(=O)c1ccc(O)cc1 [Butylparaben]	8	0.09975	0.1079	Gain-Loss	51.2671	Hill	8	52.9514	73.1	67.8	10.4	19.2784	11.4715		AC50 [4, 16]: 15.3 µM
CCOP(=S)(OCC)Oc1nc(Cl)c(Cl)cc1Cl [Chlorpyrifos]			-0.04623		43.366	Hill	1.601	66.6083				11.582	0		AC50 ([3]; hill_ga): 32.9 µM and 58.7 µM; AC50 ([4]; hill_ga): > 99.9 µM
C[C@]12CC[C@@H]3c4ccc(O)cc4CC[C@H]3[C@@H]1CCC2=O [Estrone]	0.4978	4.258	3.757	Hill	84.5958	Hill	1.278	83.5344				20.7469	20.0823		AC50 [3, 20]: 0.556 µM; AC50 ([3]; spid=No_RNA, antagonist mode, 10 nM agonist stimulus, 18 h, no CYP expressed, read-out: hill_ga (converted)): 0.707 µM; AC50 ([4]; spid=Bgal, agonist mode, 18 h, no CYP expressed, read-out: hill_ga (converted)): 4.32 µM; AC50 ([4]; spid=No_RNA, agonist mode, 18 h, no CYP expressed, read-out: hill_ga (converted)): 2.63 µM
CCCSP(=O)(OCC)SCCC [Ethoprop]					30.1172	Hill	1.091	36.6932			> 99.9	22.3553	18.1513		max_med [1]: -0.01755
C[C@]12CC[C@@H]3c4ccc(O)cc4C[C@@H](CCCCCCCCC[S+]([O-])CCCC(F)(F)C(F)(F)F)[C@H]3[C@@H]1CC[C@@H]2O (some centres unmarked) [Fulvestrant]		0	0.04086	Constant	30.2853	Hill	0.7802	36.6036				0.2489	0	0	AR2 agonist ([1]; 18 h): 0; OT 8 hr [7, 21]: 0; OT 16 hr [7, 22]: 0; Agonist reference [9, 19]: Inactive
N#Cc1ccc(C(c2ccc(C#N)cc2)n2cncn2)cc1 [Letrozole]	3.273	5.82	6.074	Gain-Loss	39.7548	Hill	1.809	49.9358		54.9	> 99.9	11.0349	0		
O=C1C[C@@H](c2ccc(O)cc2)Oc2cc(O)cc(O)c21 [Naringenin]	8	0.1206	0.1409	Gain-Loss		Hill	8		49.8	57.7	> 99.9	0.3009	0		hill_tp (Hill model top) [2]: 38.8754; max_med (maximum median response) [2]: 37.0321
O=[N+]([O-])c1c(Cl)c(Cl)c(Cl)c(Cl)c1Cl [Pentachloronitrobenzene]	5.807	0.296	0.2467	Gain-Loss	40.8543	Hill	8	49.0252			> 99.9	37.6424	16.6244		
CC(C)=CC1C(C(=O)OCN2C(=O)C3=C(CCCC3)C2=O)C1(C)C (centres unmarked) [Tetramethrin]	4.525	0.4941	0.4102	Hill	7.623	Hill	3.974	4.695				11.4832	20.7059	0	activity call in agonist mode ([1]; 128-chemical evaluation, 18 h, active = maximal median response >5*bmad): inactive; AR2 agonist ([1]; 18 h): 0; OT 8 hr [7, 21]: 1; OT 16 hr [7, 22]: 1; Agonist reference [9, 19]: Inactive; AC50 [3, 20]: 43.1 µM
CCCN(CCC)c1c([N+](=O)[O-])cc(C(F)(F)F)cc1[N+](=O)[O-] [Trifluralin]	0.3	0.2593	0.1998	Gain-Loss		Hill	1.383		52.2	47.5		33.7321	18.5971		hill_tp (Hill model top) [2]: 55.7657; max_med (maximum median response) [2]: 39.0604; AC50 [4, 16]: > 99.9 µM
